Here are results for one compound from patent publication US11708357B2, “Crystal form of pyrrolidinyl urea derivative and application thereof” (ZHANGZHOU PIEN TZE HUANG PHARMACEUTICAL CO., LTD., priority 2020, dated 2023).

The nature of series [1]: In vivo pharmacokinetic study in rats after single administration. Conditions: male, Sprague Dawley, rat, plasma, 2 mg/kg, 2 mpk intravenous injection. As for the experimental part: Male SD rats were used as test animals, and the concentration of the compound in blood was determined after single administration to evaluate the pharmacokinetic behavior.
Sprague Dawley rats (male, 200-300 g, 7-9 weeks, Shanghai Charles River Laboratory Animal Co., Ltd.)
The pharmacokinetic characteristics of the test compound in rodents after intravenous injection and oral administration were tested by standard protocols, in the experiment, the test compound was prepared into a clear solution or homogeneous suspension, and administered to the rats by single intravenous injection and oral administration. In the intravenous injection group, the menstruum was a certain proportion of ethanol and physiological saline solution or a certain proportion of dimethyl sulfoxide in HP-β cyclodextrin solution (the pH was adjusted to 3-4), the mixture was vortexed and stirred to prepare 1 mg/mL clear solution, then filtered with microporous membrane for later use; in the oral administration group, the menstruum was a certain proportion of sodium carboxymethyl cellulose solution or a certain proportion of dimethyl sulfoxide in HP-β cyclodextrin solution (the pH was adjusted to about 4), after the test compound was mixed with the solvent, the mixture was vortexed and stirred to prepare 30 mg/mL homogeneous suspension for later use. After 2 mg/kg intravenous administration or 300 mg/kg oral administration to rats, a certain amount of whole blood samples were collected, centrifuged at 3000 g for 15 minutes, the supernatant was separated to obtain the plasma samples; then an acetonitrile solution containing internal standard with a volume 3 times that of the plasma sample was added to precipitate proteins, and then centrifuged; the supernatant was separated, and water with a volume twice that of the supernatant was added to the supernatant, which was then centrifuged again; the supernatant was collected for analysis; LC-MS/MS analysis method was used to quantitatively analyze the blood drug concentration, and Phoenix WinNonlin software (Pharsight, USA) was used to calculate the pharmacokinetic parameters, such as peak concentration, time to peak concentration, clearance rate, half-life, area under the concentration-time curve, bioavailability, etc.
Among them, C0 is the initial concentration, T1/2 is the elimination half-life, Vdss is the steady-state apparent volume of distribution, Cl is the total clearance rate, AUC0-inf is the area under the plasma drug concentration-time curve from time 0 to infinity, Cmax is the peak concentration, Tmax is the time to peak concentration.

Series [2] can be described thus: Plasma protein binding rate (PPB) test, SD rat plasma. In kind it is in vitro ADME. Conditions: 2 μM, dialysis 37° C. 4 hours. Here is the method: The protein binding rates of the test compound in the plasma of humans and SD rats were determined.
796 μL of blank plasma from humans and SD rats (plasma purchased from BioreclamationIVT) were taken, 4 μL of working solution of the test compound (400 μM) or warfarin working solution (400 μM) was added and the final concentration of the test compound or warfarin was 2 μM. The sample was mixed thoroughly. […] All samples were analyzed by LC/MS/MS after protein precipitation, and the plasma protein unbound rate, binding rate and recovery rate was calculated according to the following formula: % unbound rate=100*free compound concentration at the membrane buffer side/total compound concentration at the membrane plasma side, % protein binding rate=100−% unbound rate, % recovery rate=100*(free compound concentration at the membrane buffer side+total compound concentration at the membrane plasma side)/total compound concentration before dialysis.

In a further series the target is T1, CYP2D6 (Homo sapiens, UniProt P10635).
T1 construct: from tissue; host or cells: human liver microsomes
T1 sequence (P10635 whole entry): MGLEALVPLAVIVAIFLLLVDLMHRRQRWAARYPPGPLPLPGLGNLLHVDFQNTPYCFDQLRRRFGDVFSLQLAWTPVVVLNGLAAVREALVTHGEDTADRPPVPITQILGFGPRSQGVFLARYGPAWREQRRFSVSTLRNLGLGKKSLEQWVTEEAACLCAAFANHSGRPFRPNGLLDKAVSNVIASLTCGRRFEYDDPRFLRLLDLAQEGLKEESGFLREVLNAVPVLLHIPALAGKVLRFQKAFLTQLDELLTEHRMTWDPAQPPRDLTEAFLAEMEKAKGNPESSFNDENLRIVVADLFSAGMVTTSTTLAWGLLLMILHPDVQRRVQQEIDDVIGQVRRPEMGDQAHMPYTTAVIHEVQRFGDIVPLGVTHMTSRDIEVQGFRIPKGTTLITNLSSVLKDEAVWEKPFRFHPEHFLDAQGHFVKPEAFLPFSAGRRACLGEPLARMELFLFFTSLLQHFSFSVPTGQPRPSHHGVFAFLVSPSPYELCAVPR
Nature of the series: Cytochrome P450 isozyme inhibitory activity test, CYP2D6. In kind it is in vitro ADME. To be noted: liver microsomes; human liver microsome. As for the experimental part: The inhibitory activities of the test compound on different subtypes of human cytochrome P450 isozymes were determined. The test compound, standard inhibitor (100× final concentration), and a mixed substrate working solution were prepared; the microsome frozen in −80° C. refrigerator was thawed. […]

One may read the AUC(0-inf) as the area under the concentration-time curve extrapolated to infinity. The low end stands for low exposure, the high end for high exposure. Usually clearance stands for a measure of how efficiently the substance is removed, as volume per time. What is called half-life is how long it takes for the measured level to halve. High values mean slow loss, low ones fast loss. A word on the IC50: it is the concentration that gives 50% inhibition. In series [1], `COCCN1C[C@@H](n2ccc(F)c2)[C@H](NC(=O)Nc2c(C)c(-c3cnc(C4(F)COC4)nc3)nn2-c2ccccc2)C1` [Compound of formula (I)] had an AUC(0-inf) of 2.61 µM·h, a C0 of 5.38 µM, a clearance of 22.4 mL/min/kg and a half-life of 33 min. Also, the Vd in series [1] (read-out: Vdss) was 0.81 L/kg. Moreover, the “Plasma protein unbound rate, SD rat plasma” value in series [2] amounted to 7.1%. Also, half-maximal inhibition against CYP2D6 (IC50 at 10 min) was put at 40.6 µM.
